From patent US20220017863A1, “SIRT2-ABLATED CHIMERIC T CELLS” (H. Lee Moffitt Cancer Center and Research Institute, Inc., priority 2019, published 2022)

How the values were obtained:
[1] = system: Pmel CD8+ T cells co-cultured with B16F10 target cells; assay: LDH release cytotoxicity assay of Pmel CD8+ T cells on B16F10 targets; assay type: cell-based, mouse; details: gp100-stimulated Sirt2KO (Sirt2−/−) Pmel T cells on B16F10 targets, 10 mM 2-DG
Description: Evaluation of functional cytotoxic activity was performed using Pierce™ LDH Cytotoxicity Assay Kit (ThermoFisher Scientific) according to the manufacturer's protocol. B16F10 cells were used as targets. Mouse CD3^+ TILs isolated from subcutaneous B16F10 tumor nodules and CD8^+ enriched T cells from gp100-stimulated Pmel splenocytes were used as effector cells. Briefly, target B16F10 tumor cells were co-cultured with effector cells in 96-well round-bottom microplates at the indicated effector:target ratios. After 6 hours, the percentage of specific LDH release was calculated according to the following formula: % cell lysis=(experimental value effector cells spontaneous release target cells spontaneous release)×100/(target cells maximum release target cells spontaneous release), where “experimental” corresponds to the experimental signal value, “effector spontaneous” to spontaneous release of LDH from effector cells alone, “target spontaneous” to spontaneous release of LDH from target cells alone and “maximum release” to the maximum release of LDH from target cells in medium containing 1% Triton X-100.
Evaluation of functional cytotoxic activity was performed using Pierce™ LDH Cytotoxicity Assay Kit (Thermo Fisher Scientific) according to the manufacturer's protocol. […]

Pmel T cells = assay: IFN-γ ELISPOT on gp100-stimulated Pmel T cells; assay type: cell-based, mouse; details: gp100-stimulated Sirt2KO (Sirt2−/−) Pmel T cells
Description: Spleens and/or Lymph nodes (LN) were collected from WT, Sirt2KO, Pmel/WT, Pmel/Sirt2KO mice and processed into single-cell suspensions. CD3^+, CD4^+ and CD8^+ T cells were negatively enriched using Mouse Pan T cell, CD4^+ T cell and CD8^+ T cell isolation Kits™ respectively according to the manufacturers' instructions. The purity of the isolated cells was confirmed by flow cytometry (>95%). Purified T cells were cultured in completed RPMI 1640 medium (ThermoFisher Scientific) supplemented with 10% (vol/vol) Fetal bovine serum (FBS, Biowest) and 1% (vol/vol) penicillin/streptomycin (P/S, Thomas Scientific Inc). […]
(§1) The number of IFN-γ producing cells was evaluated in an ELISPOT assay. […] After washing steps and biotinylated anti-IFN-γ antibody (R4-6A2, ThermoFisher Scientific)+Streptavidin-HRP (BD Bioscience) labeling, spots were detected using AEC Substrate Kit (BD Biosciences) and counted using an AID ELISPOT Reader System (Autoimmun Diagnostika GmbH). […]
(§2) The number of IFN-γ producing cells was evaluated in an ELISPOT assay. […] After washing steps and successive biotinylated anti-IFN-γ antibody (R4-6A2, Mabtech, Inc.) and Streptavidin-HRP (BD Bioscience) labeling, spots were detected using AEC Substrate Kit (BD Biosciences) and counted using an AID ELISPOT Reader System (Autoimmun Diagnostika GmbH).

[2] = system: CD3+ TILs from B16F10 tumor nodules; assay: IFN-γ ELISPOT on mouse CD3+ TILs re-challenged with irradiated B16F10 cells; assay type: cell-based; details: CD3+ TILs from subcutaneous B16F10 nodules of Sirt2KO versus WT mice
Description: Lymphocytes from subcutaneous tumors were isolated by dicing the tissues and enzymatic digestion in PBS containing collagenase type 4 (2 mg/ml, Worthington Biochemical) and DNase I (0.25 mg/ml, Sigma) for 45 min with occasional shaking at 37° C. Cell suspensions were then twice filtered through 100 μm and 40 μm cell strainers (ThermoFisher Scientific) to single-cell suspension followed by PBS wash and red blood cell lysis using RBC Lysis Buffer (Biolegend). TILs were finally isolated by density gradient centrifugation using Percoll (GE Healthcare) and further purified using CD3c MicroBeads Kit™ (Miltenyi Biotec) according to the manufacturer's instructions. […]
as §1, §2

SIRT2 = target: T1, SIRT2 (Homo sapiens, UniProt Q8IXJ6); details: cited from earlier work
T1 sequence (Q8IXJ6 1-389): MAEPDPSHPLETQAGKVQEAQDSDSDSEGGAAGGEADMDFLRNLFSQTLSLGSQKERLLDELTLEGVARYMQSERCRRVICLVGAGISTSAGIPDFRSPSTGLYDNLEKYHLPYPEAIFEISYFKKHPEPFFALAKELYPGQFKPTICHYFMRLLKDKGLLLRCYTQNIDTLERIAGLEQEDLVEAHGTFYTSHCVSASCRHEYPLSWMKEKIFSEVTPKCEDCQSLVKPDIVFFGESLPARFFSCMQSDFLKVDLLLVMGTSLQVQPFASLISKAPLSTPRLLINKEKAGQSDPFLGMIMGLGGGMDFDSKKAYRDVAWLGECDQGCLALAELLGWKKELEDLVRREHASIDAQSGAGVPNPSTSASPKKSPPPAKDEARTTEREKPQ

SIRT3 = target: T2, SIRT3 (Homo sapiens, UniProt Q9NTG7); details: cited from earlier work
T2 sequence (Q9NTG7 1-399): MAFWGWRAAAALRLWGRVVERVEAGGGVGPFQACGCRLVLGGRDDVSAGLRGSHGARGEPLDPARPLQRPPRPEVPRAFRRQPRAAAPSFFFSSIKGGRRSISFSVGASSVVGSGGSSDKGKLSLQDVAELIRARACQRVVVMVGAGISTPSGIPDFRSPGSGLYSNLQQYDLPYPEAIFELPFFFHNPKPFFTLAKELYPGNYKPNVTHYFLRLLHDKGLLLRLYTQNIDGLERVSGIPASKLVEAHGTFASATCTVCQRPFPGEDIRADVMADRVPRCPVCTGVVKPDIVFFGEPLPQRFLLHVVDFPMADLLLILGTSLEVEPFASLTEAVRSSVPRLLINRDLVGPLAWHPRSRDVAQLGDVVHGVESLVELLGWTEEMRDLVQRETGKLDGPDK

SIRT1 = target: T3, SIRT1 (Homo sapiens, UniProt Q96EB6); details: cited from earlier work
T3 sequence (Q96EB6 1-747): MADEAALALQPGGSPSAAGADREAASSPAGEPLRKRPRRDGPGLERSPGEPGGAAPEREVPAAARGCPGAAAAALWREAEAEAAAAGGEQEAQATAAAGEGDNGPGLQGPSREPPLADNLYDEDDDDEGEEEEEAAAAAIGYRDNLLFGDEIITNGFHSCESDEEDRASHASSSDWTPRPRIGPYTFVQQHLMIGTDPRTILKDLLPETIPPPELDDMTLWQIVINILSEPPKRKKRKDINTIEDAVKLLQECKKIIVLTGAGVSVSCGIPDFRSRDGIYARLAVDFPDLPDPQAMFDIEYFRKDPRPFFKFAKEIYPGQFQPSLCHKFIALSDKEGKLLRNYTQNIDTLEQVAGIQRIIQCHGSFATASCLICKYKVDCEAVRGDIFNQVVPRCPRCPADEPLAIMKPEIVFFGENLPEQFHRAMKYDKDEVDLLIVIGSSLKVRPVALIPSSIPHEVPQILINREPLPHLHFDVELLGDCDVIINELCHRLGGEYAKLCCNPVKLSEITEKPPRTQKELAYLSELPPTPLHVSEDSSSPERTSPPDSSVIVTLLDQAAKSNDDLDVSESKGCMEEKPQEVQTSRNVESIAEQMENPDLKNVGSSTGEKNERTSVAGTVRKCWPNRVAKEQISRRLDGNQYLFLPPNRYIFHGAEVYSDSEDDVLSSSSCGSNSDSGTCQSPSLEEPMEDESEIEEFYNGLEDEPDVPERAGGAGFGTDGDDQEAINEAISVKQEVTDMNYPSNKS

Structure (SMILES): O=CC[C@@H](O)[C@H](O)[C@H](O)CO [2-DG, 2-deoxyglucose]
- cytotoxicity [1]: profoundly suppressed
- IFN-γ release (Pmel T cells): profoundly suppressed
- IFN-γ release [2]: suppressed

Structure (SMILES): CCOC(=O)c1ccc(NC(=O)c2ccc3c(c2)C2C4CCC(C4)C2C(c2ccccc2)N3)cc1 (stereo not drawn) [AEM2]
- IC50 (SIRT2): 3.8 µM

Structure (SMILES): O=C(Nc1cccc([N+](=O)[O-])c1)c1cccc(S(=O)(=O)N2CCCCCC2)c1 [AK-1]
- IC50 (SIRT3): > 50 µM
- IC50 (SIRT1): > 50 µM
